Counter-ions that a name gives are not always drawn. Like-named read-outs stand apart in the source and are kept apart here.

Here are results for seven molecules from patent US5500443A, “New benzodioxane compounds” (Adir et Compagnie, priority 1994, dated 1996).

The target of one data set is T1, D1 (Rattus norvegicus, UniProt P18901).
T1 construct: from tissue
Description: Receptor profile, binding studies (D1). To be noted: read-out: Receptor Profile (pKi) D1 (converted).

A further data set addresses D2 (Rattus norvegicus, UniProt P61169). Description: biochemical. Particulars: binding; read-out: Receptor Profile (pKi) D2 (converted).
In another data set the target is T2, 5-HT1A (Rattus norvegicus, UniProt P19327).
T2 sequence (P19327 1-422): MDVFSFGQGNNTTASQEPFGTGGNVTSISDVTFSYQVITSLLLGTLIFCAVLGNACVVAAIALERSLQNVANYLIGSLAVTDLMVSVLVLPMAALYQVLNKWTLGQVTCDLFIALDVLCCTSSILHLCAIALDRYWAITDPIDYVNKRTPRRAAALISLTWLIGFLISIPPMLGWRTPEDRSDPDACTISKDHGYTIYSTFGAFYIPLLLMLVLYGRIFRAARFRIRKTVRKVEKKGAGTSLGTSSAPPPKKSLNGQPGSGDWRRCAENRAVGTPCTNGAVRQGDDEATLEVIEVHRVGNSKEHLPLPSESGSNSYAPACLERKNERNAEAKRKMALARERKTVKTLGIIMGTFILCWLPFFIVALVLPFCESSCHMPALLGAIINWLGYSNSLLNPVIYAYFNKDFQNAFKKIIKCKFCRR
The data set is described as follows: biochemical. Particulars: binding; read-out: Receptor Profile (pKi) 5-HT1A (converted).

In a further data set the target is T3, 5-HT2A (Rattus norvegicus, UniProt P14842).
T3 construct: from tissue
The data set is described as follows: Receptor profile, binding studies (5-HT2A). Particulars: Receptor Profile (pKi) 5-HT2A.

In a further data set the target is T4, 5-HT2C (Sus scrofa, UniProt K7GSR7).
T4 construct: from tissue
T4 sequence (K7GSR7 1-457): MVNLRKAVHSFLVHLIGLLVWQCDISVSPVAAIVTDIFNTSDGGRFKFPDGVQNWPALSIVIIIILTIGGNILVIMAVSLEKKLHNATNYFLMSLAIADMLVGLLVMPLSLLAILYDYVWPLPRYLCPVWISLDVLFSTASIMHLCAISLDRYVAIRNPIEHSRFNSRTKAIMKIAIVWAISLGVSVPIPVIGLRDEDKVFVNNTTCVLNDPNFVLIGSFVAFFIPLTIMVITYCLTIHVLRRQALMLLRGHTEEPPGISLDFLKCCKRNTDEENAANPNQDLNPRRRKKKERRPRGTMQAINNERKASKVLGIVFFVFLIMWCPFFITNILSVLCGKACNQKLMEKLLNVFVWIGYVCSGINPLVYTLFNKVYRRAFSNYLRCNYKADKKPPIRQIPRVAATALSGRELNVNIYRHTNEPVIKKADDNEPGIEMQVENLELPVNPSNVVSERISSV
The data set is described as follows: Receptor profile, binding studies (5-HT2C). To be noted: Receptor Profile (pKi) 5-HT2C.

Another data set addresses α1. The data set is described as follows: Receptor profile, binding studies (α1).
For data set [1], the system named is mesolimbic dopaminergic pathways. The data set is described as follows: Verticalization test using apomorphine in mice. It is filed as in vivo, male CF (Charles River) mice. Particulars: for ED50: Mus musculus, sc, read-out: Verticalization (Apomorphine) DI50. The method, then:
(§1) An activity in these tests appears to reflect blocking of the mesolimbic dopaminergic pathways, which are believed to be hyperactive in schizophrenics, as described by P. C.
The experiment was performed on male CF (Charles River) mice of average weight 25 g. thirty minutes before the start of the test, each mouse was placed in a cylindrical cage (O12 cm 14 cm), with vertical metal bars and a smooth plastic lid, after having received a subcutaneous injection of solvent or of product. […] At T10 (10 minutes) and at T20 (20 minutes), a score was attributed to each animal after observation for approximately one minute:
score 0 (4 feet on the floor);
score 1 (animal raised on hind legs, forefeet on the vertical bars);
score 2 (animal gripping on to the bars with all 4 feet).
The total score of the 2 measurements then represents the verticalization value of the animal, which is used for the statistical analysis.

The test system is the same in data set [2]. Description: Test of the motor activity induced by amphetamine. To be noted: for ED50: Rattus norvegicus, sc, read-out: Locomotion (Amphetamine) DI50. It counts as in vivo, male Wistar rats. The method, then: motor activity inhibition induced by amphetamine (which increases the release of catecholamines) according to the procedure described by A. A. Mengens, cited above.
as §1
Male Wistar rats (200-220 g) were placed in transparent polycarbonate individual cages the night before the test. The locomotor activity was recorded using photoelectric cells (Systeme Lablinc, Coulbourn) connected via an interface to a microcomputer. There are two transverse banks of photoelectric cells per cage. The test takes place under artificial light, starting from 1.00 p.m., during daylight hours. The product or solvent was administered to the animal subcutaneously, 30 minutes before the start of the test.

The nature of data set [3]: Induction of catalepsy in rats. Particulars: rat, in vivo, sc. Set-up: species or system male Wistar rats. The source says:
In order to determine the potential of the compounds of the invention to generate a syndrome of extrapyramidal type, the capacity to induce a catalepsy in rats was examined. This phenomenon is due to an antagonism of the nigrostriatal dopaminergic transmission.
Male Wistar rats (220-240 g) were placed in individual cages and food was witheld the night before the test. The test used to evaluate the cataleptogenic properties of a product consists in placing each of the animal's hind feet on the forefoot located on the same side and in measuring the time in seconds for which the animal kept this "crossed feet" position, up to 30 seconds, as described by P. C. […] Each animal underwent three tests, at intervals of one minute; the average value of the three tests then represents the catalepsy time of the animal, which is used for the statistical analysis. The product to be tested was administered to the animal subcutaneously, 30 minutes before the test.
The effective cataleptogenic dose ED5.sbsb.0 is that which induces catalepsy for an average duration of 15 seconds, that is to say for 50% of the maximum duration of the test (30 seconds).

Data set [4] concerns adrenergic (α1) receptors. To be noted: cited from earlier work.
Another data set has as its system schizophrenia. To be noted: cited from earlier work.
Another data set concerns 5-HT1A receptors. To be noted: unlike haloperidol; cited from earlier work.
The mark [5] stands for this setting: mice, s.c. 30 min before, apomorphine 0.75 mg/kg s.c., Inhibitory Dose50, 95% confidence limits.
[6] abbreviates: rats, s.c. 30 min before, D-amphetamine 2.5 mg/kg i.p., 1 hour, Inhibitory Dose50, 95% confidence limits.

T1 sequence (P18901 whole entry): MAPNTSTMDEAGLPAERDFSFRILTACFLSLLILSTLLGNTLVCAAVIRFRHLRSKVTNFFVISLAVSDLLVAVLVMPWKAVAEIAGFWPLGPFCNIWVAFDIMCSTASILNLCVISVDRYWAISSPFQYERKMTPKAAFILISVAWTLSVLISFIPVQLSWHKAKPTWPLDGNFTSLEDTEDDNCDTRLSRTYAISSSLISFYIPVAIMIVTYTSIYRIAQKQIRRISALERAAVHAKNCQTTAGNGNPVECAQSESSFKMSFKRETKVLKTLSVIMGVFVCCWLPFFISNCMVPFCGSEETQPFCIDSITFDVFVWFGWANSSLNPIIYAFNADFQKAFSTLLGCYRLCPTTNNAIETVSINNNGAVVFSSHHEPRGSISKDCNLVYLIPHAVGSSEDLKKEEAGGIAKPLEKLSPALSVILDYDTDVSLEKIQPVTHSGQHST
D2, sequence (P61169 whole entry): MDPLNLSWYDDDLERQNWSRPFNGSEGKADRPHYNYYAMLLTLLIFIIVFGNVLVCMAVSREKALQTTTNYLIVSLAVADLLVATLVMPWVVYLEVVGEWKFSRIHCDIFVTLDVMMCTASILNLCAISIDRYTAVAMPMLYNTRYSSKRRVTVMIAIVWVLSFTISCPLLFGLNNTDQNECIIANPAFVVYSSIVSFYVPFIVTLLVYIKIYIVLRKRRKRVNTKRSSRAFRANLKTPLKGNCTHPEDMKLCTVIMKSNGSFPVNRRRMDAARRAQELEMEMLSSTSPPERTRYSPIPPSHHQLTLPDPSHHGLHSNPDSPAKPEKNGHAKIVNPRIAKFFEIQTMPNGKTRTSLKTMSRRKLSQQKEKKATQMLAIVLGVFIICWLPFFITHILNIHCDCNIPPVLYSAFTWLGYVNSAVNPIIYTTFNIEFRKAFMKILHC
T3 sequence (P14842 whole entry): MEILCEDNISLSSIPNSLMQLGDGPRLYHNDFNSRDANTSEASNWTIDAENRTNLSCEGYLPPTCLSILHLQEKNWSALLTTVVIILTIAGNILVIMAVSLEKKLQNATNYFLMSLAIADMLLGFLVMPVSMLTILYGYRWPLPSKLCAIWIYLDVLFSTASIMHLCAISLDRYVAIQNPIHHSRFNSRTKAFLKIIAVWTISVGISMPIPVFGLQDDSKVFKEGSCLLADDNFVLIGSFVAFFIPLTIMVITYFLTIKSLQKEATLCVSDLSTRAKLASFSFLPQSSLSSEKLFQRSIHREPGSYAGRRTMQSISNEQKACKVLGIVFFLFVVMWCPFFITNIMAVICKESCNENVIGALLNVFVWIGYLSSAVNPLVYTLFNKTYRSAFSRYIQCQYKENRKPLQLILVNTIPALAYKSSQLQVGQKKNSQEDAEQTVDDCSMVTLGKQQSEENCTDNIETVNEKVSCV

In the case of `O=C(CC1CCN(CCOc2cccc3c2OCCO3)C1)c1ccc(F)cc1` (single isomer, unassigned) [Example 6, 5-{2-[3-(4-Fluorobenzoylmethyl)pyrrolidin-1-yl]ethoxy}-1,4-benzodioxane hydrochloride, (-) isomer], the Ki is 204 nM on D1; 53.7 nM on D2; 3.63 nM at 5-HT1A; 2.4 nM at 5-HT2A; 6.61 nM on 5-HT2C. In addition, the “Receptor Profile (pKi) α1” value on α1 (listed as ex. 6) came out at 8.93. In data set [1] (mice, s.c. 30 min before, apomorphine 0.75 mg/kg s.c., Inhibitory Dose50, 95% confidence limits, listed as Ex. 6), the “Verticalization (Apomorphine) DI50” value is reported as 0.25 mg/kg. For the same molecule, the “Locomotion (Amphetamine) DI50” value in [2] (rats, s.c. 30 min before, D-amphetamine 2.5 mg/kg i.p., 1 hour, Inhibitory Dose50, 95% confidence limits, listed as Ex. 6) was found to be 1.94 mg/kg.
For `Cl.Fc1ccc2c(CC3CCN(CCOc4cccc5c4OCCO5)C3)n[nH]c2c1` (stereo not shown) [Example 7, 5-{2-[3-[(6-Fluoro-1H-indazol-3-yl)methyl]pyrrolidin-1-yl]ethoxy}-1,4-benzodioxane hydrochloride], the Ki at D2 is 53.7 nM; at 5-HT1A, 1.7 nM; at 5-HT2A, 21.9 nM; at 5-HT2C, 93.3 nM. The ED50 in data set [1] (setting [5]) is 0.41 mg/kg.
Take `O=C(CC1CCN(CCOc2cccc3c2OCCO3)C1)c1ccc(F)cc1` (stereo not shown) [Example 2, 5-{2-[3-(4-Fluorobenzoylmethyl)pyrrolidin-1-yl}-1,4-benzodioxane hydrochloride]: the Ki on D1 was 251 nM; on D2, 43.7 nM; at 5-HT1A it was 4.9 nM; at 5-HT2A, 3.98 nM; at 5-HT2C, 7.94 nM. For the same molecule, on α1, the “Receptor Profile (pKi) α1” value was 8.61. Further, the ED50 amounted to 0.28 mg/kg in [1] (setting [5]) and 2.17 mg/kg in data set [2] (setting [6]). Further, in data set [3], the ED50 at 0.5 h was more than 40 mg/kg.
Take `CN1CCN(C2=Nc3cc(Cl)ccc3Nc3ccccc32)CC1` [Clozapine, clozapine]: the values for the ED50 in data set [1] (setting [5]) and in [2] (setting [6]) were 2.22 mg/kg and 12.8 mg/kg, respectively. Also, the ED50 at 0.5 h in data set [3] (rats, s.c. 30 min before, dose inducing catalepsy for an average of 15 seconds (50% of maximum), read-out: Induction of the catalepsy DE50) is more than 40 mg/kg. Further, in data set [4], the “affinity for the adrenergic (α1) receptors” value is listed as “relatively high affinity”. Besides, in the data set with schizophrenia (human, in vivo), the “toxicity in the general treatment of schizophrenic states” value is recorded as “on account of its toxicity, clozapine cannot be envisaged in the general treatment of schizophrenic states”. In the data set with schizophrenia (schizophrenia), the extrapyramidal syndrome result is reported as “appears not to bring about an extrapyramidal syndrom”. Besides, the “affinity for the 5-HT1A receptors” value in the data set with 5-HT1A receptors was “a certain affinity for the 5-HT1A receptors”.
As to `O=C(CC1CCN(CCOc2cccc3c2OCCO3)C1)c1ccc(F)cc1` (single isomer, unassigned) [Example 5, 5-{2-[3-(4-Fluorobenzoylmethyl)pyrrolidin-1-yl]ethoxy}-1,4-benzodioxane hydrochloride, (+) isomer], the Ki at D1 is 275 nM; on D2, 46.8 nM; at 5-HT1A, 4.79 nM; at 5-HT2A it was 3.31 nM; on 5-HT2C it was 9.33 nM. On α1 (listed as ex. 5), the “Receptor Profile (pKi) α1” value amounted to 8.19. For the same molecule, the ED50 in [1] (setting [5]) turned out to be 0.26 mg/kg; in data set [2] (setting [6]), 2.8 mg/kg. In [3], this molecule displayed an ED50 at 0.5 h of more than 40 mg/kg.
`O=C(CCCN1CCC(O)(c2ccc(Cl)cc2)CC1)c1ccc(F)cc1` [Haloperidol, haloperidol, reference compound]: the ED50 in data set [1] came to 0.013 mg/kg. Moreover, the ED50 in [2] was found to be 0.043 mg/kg. In data set [3], the ED50 at 0.5 h worked out at 0.156 mg/kg. For the same molecule, in the data set with schizophrenia (schizophrenia), the “effectiveness for the productive symptoms (such as fabulation and hallucinations)” value is listed as “quite good care for the productive symptoms”; the “effectiveness with regard to deficiency symptoms (such as social withdrawal)” value was “very poor”; the extrapyramidal syndrome result was “induce an extrapyramidal syndrome of Parkinson type”.
As to `Cl.Fc1ccc2c(CC3CCN(CCOc4cccc5c4OCCO5)C3)noc2c1` (stereo not shown) [Example 8, 5-{2-[3-[(6-Fluoro-1,2-benzisoxazol-3-yl)methyl]pyrrolidin-1-yl]ethoxy}-1,4-benzodioxane hydrochloride], the Ki at D2 was 257 nM; at 5-HT1A it was 3.89 nM; on 5-HT2A, 13.2 nM; at 5-HT2C it was 95.5 nM. For the same molecule, the ED50 in [1] (setting [5]) is approximately 0.63 mg/kg.
